Assay results as given in patent US20240246968A1, “SMALL MOLECULE INHIBITORS OF KRAS G12C MUTANT” (Merck Sharp & Dohme LLC, priority 2021, published 2024).

Columns and labels:
[1] = biological target: Gppcp-bound recombinant K-Ras4B G12C mutant protein (amino acids 1-169, C51S/C80L/C118S) (Homo sapiens, UniProt P01116, C118S/C51S/C80L/G12C); assay: KRASG12C binding assay (LC-MS, compound binding rate); conditions: test compound final concentration 0.5 μM, 25° C., 1 hour
Procedure: As test compounds for the KRASG12C binding assay, the compounds obtained in the “Preparation of Compounds” section were used. Sample solutions each containing a test compound were prepared in the form of a 10 mM DMSO solution.
Gppcp-bound recombinant K-Ras4B G12C mutant protein (amino acids 1-169, C51S/C80L/C118S, SEQ ID NO:1) was diluted with a buffer (1×TBS, 0.1 mM TCEP, 0.25 mM MgCl2, 50 μM Gppcp) to prepare a 50 nM protein solution. K-Ras4B is the major splicing variant of K-Ras. Amino acid sequence of residues 1 to 150 including the compounds' binding region of K-Ras4B is exactly same as that of K-Ras4A, the other splicing variant (Oncotarget. 2016 Jul. 19; 7(29): 46717-46733). A sample solution containing 10 mM test compound was diluted ten-fold with DMSO to make a 1 mM sample solution, and then diluted twenty-fold with DMSO to make a 50 μM sample solution. 1 μL of a 50 μM sample solution was added to 100 μL of a 50 nM protein solution to adjust the final concentration of a test compound to be 0.5 μM in the mixture. The mixtures were stored in an incubator at 25° C. for 1 hour, and 10 μL of a 1×TBS solution containing 2% formic acid was added to stop the reaction, followed by LC-MS measurement. LC-MS measurement was performed using Xevo G2-S Q-Tof manufactured by Waters, and reverse-phase chromatography was performed with a desalting column. A mass spectrum of positive ions was obtained by electrospray. For a mass spectrum, a spectrum of polyvalent ions was collectively converted to a molecular weight by using OpenLynx software by the MaxEnt technique, and a compound binding rate was calculated from the ratio of the signal intensity of a peak that corresponds to the molecular weight of the protein to the signal intensity of a peak that corresponds to the molecular weight of the protein conjugated with the compound.
The binding assay of the test compounds was conducted at a final concentration of 0.5 μM. A binding rate of 80% or more is rated “A”, a binding rate of 60% or more and less than 80% is rated “B”, a binding rate of 40% or more and less than 60% is rated “C”, a binding rate of 20% or more and less than 40% is rated “D”, and a binding rate of less than 20% is rated “E”. N.D.=not determined. Binding rate % is the ratio of KRAS signal intensity at the molecular weight of one molecule adduct to the sum of all the KRAS signal intensity (unbound form and adducts) in mass spectrum. Thus, binding rate 100% means that only the one molecule adduct was observed without any unbound KRAS. The following tables show the results.

[2] = biological target: T1, interaction between recombinant K-Ras4B G12C mutant protein and cRAF RAS-binding domain (cRAF-RBD) (Homo sapiens, UniProt P01116, G12C); assay: Inhibitory activity on interaction between KRAS G12C and cRAF (Alpha technology); type: biochemical; conditions: GMPPNP-bound KRAS G12C incubated with compound at 25° C. for 1 hour, then cRAF-RBD; Alpha signal
T1 construct: made in house; host or cells: E. coli
Procedure: Interaction between recombinant K-Ras4B G12C mutant protein (amino acids 1-169, SEQ ID NO:2) and cRAF RAS-binding domain (cRAF-RBD, amino acids 50-132, Jena Biosciences GmbH) was measured using Alpha technology (PerkinElmer Inc.).
Recombinant KRAS G12C protein with an N-terminal His-tag was expressed in E. coli and purified by affinity chromatography. To prepare GTP-bound form and GDP-bound form of KRAS G12C protein. 50 μM KRAS G12C protein was incubated with 1 mM GMPPNP (Guanosine-5′-[(β,γ)-imido]triphosphate. Tetralithium salt)(Jena Bioscience GmbH) and 1 mM GDP, respectively, in a loading buffer (20 mM Tris-HCl (pH 7.5), 50 mM NaCl, 1 mM DTT and 2.5 mM EDTA) for 1 hour on ice. After the incubation, MgCl2 was added to a final concentration of 10 mM, followed by incubation at room temperature for 30 minutes. The mixture was allowed to pass through a NAP-5 column to remove free nucleotides and purified, and the resultant nucleotide-bound KRAS G12C protein was used for compound evaluation.
For the measurement of the inhibitory activity of compounds on interaction between KRAS G12C and cRAF-RBD, GMPPNP-bound KRAS G12C protein was incubated with various concentrations of compound in a reaction buffer (20 mM Tris-HCl (pH 7.5), 100 mM NaCl, 1 mM MgCl2, 1 mM TCEP. 0.1% Tween 20) at 25° C. for 1 hour. After the incubation, recombinant cRAF-RBD and Alpha detection reagents were added and incubated at room temperature for 1.5 hours for binding. Interaction of KRAS G12C and cRAF-RBD was monitored by measuring Alpha signal. Inhibition % was calculated using the signal from the reaction without test compound (DMSO control) as 0% inhibition and the signal from the reaction using GDP-bound KRAS G12C in place of GMPPNP-bound KRAS G12C as 100% inhibition. IC50 values were calculated from dose titration curve using curve fitting by XLfit software (IDBS). The following tables show the results.

MIA PaCa-2 cells = assay: Growth inhibition activity on KRAS-G12C mutant cell line (MIA PaCa-2), CellTiter-Glo 3D; type: cell-based, human; conditions: MIA PaCa-2, 3-day culture with compound
Procedure: MIA PaCa-2 cells (given by Sumitomo Dainippon Pharma Co., Ltd.), which are a KRAS-G12C mutant human pancreas cancer cell line, were suspended in a 10% fetal bovine serum-containing RPMI1640 medium (manufactured by Fujifilm Wako Pure Chemical Corporation.). The cell suspension was seeded into each well of a 384-well U bottom microplate and cultured in an incubator containing 5% CO2 gas at 37° C. for 1 day. The compounds obtained in the “Preparation of Compounds” section were used as test compounds and were dissolved in DMSO, respectively, and each test compound was diluted with DMSO to give a concentration 500 times the final concentration. The resultant solution of the test compound in DMSO was diluted with the medium used for suspending cells and added to each well of the cell-culture plate to give a DMSO final concentration of 0.2%, followed by culture in an incubator containing 5% CO2 gas at 37° C. for another 3 days. The cell count after 3-day culture in the presence of the test compound was measured using CellTiter-Glo 3D Reagent (manufactured by Promega Corporation). All wells were added with CellTiter-Glo 3D Reagent and mixed for 10 minutes. 30 minutes after mixing, luminescence was measured by a plate reader. The growth inhibition rate was calculated from the following equation, and the concentration of the test compound at which 50/o inhibition was achieved (IC50 (nM)) was determined. The following tables show the results.
[formula] • T: the emission intensity in a well into which a test compound was added. • C: the emission intensity in a well into which a test compound was not added.

| IC50 [2] [nM] | IC50 (MIA PaCa-2 cells) [nM] | Structure (SMILES) | binding rate [1] |
| --- | --- | --- | --- |
| 42 | 46 | CO[C@H]1CC[C@H](NC/C=C/C(=O)Nc2c(F)cc(C(=O)c3ccc4c(-c5c(Cl)cc6c(ncn6C)c5Cl)cccn34)cc2F)CC1 (single isomer, unassigned) [Example 15-1, (E)-N-(4-(8-(4,6-dichloro-1-methyl-1H-benzo[d]imidazol-5-yl)indolizine-3-carbonyl)-2,6-difluorophenyl)-4-(((1r,4r)-4-methoxycyclohexyl)amino)but-2-enamide] | A (A binding rate of 80% or more is rated “A”) |
| 190 | 220 | CO[C@H]1CC[C@H](NC/C=C/C(=O)Nc2c(F)cc(C(=O)c3ccc4c(-c5c(Cl)cc6c(ncn6C)c5Cl)cccn34)cc2F)CC1 (single isomer, unassigned) [Example 15-2, (E)-N-(4-(8-(4,6-dichloro-1-methyl-1H-benzo[d]imidazol-5-yl)indolizine-3-carbonyl)-2,6-difluorophenyl)-4-(((1r,4r)-4-methoxycyclohexyl)amino)but-2-enamide] | A (A binding rate of 80% or more is rated “A”) |
| 29 | 29 | Cc1cc2c(nc(C)n2C)c(Cl)c1-c1cccn2c(C(=O)c3cc(F)c(NC(=O)/C=C/CNC(C)(C)C)c(F)c3)ccc12 (single isomer, unassigned) [Example 18-1, (E)-4-(tert-butylamino)-N-(4-(8-(4-chloro-1,2,6-trimethyl-1H-benzo[d]imidazol-5-yl)indolizine-3-carbonyl)-2,6-difluorophenyl)but-2-enamide] | A (A binding rate of 80% or more is rated “A”) |
| 220 | 230 | Cc1cc2c(nc(C)n2C)c(Cl)c1-c1cccn2c(C(=O)c3cc(F)c(NC(=O)/C=C/CNC(C)(C)C)c(F)c3)ccc12 (single isomer, unassigned) [Example 18-2, (E)-4-(tert-butylamino)-N-(4-(8-(4-chloro-1,2,6-trimethyl-1H-benzo[d]imidazol-5-yl)indolizine-3-carbonyl)-2,6-difluorophenyl)but-2-enamide] | A (A binding rate of 80% or more is rated “A”) |
| 20 | 47 | CO[C@H]1CC[C@H](NC/C=C/C(=O)Nc2c(F)cc(C(=O)c3ccc4c(-c5c(C)cc6c(nc(C)n6C)c5Cl)cccn34)cc2F)CC1 (single isomer, unassigned) [Example 19-1, (E)-N-(4-(8-(4-chloro-1,2,6-trimethyl-1H-benzo[d]imidazol-5-yl)indolizine-3-carbonyl)-2,6-difluorophenyl)-4-(((1r,4r)-4-methoxycyclohexyl)amino)but-2-enamide] | A (A binding rate of 80% or more is rated “A”) |
| 140 | 160 | CO[C@H]1CC[C@H](NC/C=C/C(=O)Nc2c(F)cc(C(=O)c3ccc4c(-c5c(C)cc6c(nc(C)n6C)c5Cl)cccn34)cc2F)CC1 (single isomer, unassigned) [Example 19-2, (E)-N-(4-(8-(4-chloro-1,2,6-trimethyl-1H-benzo[d]imidazol-5-yl)indolizine-3-carbonyl)-2,6-difluorophenyl)-4-(((1r,4r)-4-methoxycyclohexyl)amino)but-2-enamide] | A (A binding rate of 80% or more is rated “A”) |
| 200 | 200 | Cn1cnc2c(Cl)c(-c3cccn4c(C(=O)c5cc(F)c(NC(=O)/C=C/CNC(C)(C)C)c(F)c5)ccc34)c(Cl)cc21 (single isomer, unassigned) [Example 20-1, (E)-4-(tert-butylamino)-N-(4-(8-(4,6-dichloro-1-methyl-1H-benzo[d]imidazol-5-yl)indolizine-3-carbonyl)-2,6-difluorophenyl)but-2-enamide] | A (A binding rate of 80% or more is rated “A”) |
| 33 | 59 | Cn1cnc2c(Cl)c(-c3cccn4c(C(=O)c5cc(F)c(NC(=O)/C=C/CNC(C)(C)C)c(F)c5)ccc34)c(Cl)cc21 (single isomer, unassigned) [Example 20-2, (E)-4-(tert-butylamino)-N-(4-(8-(4,6-dichloro-1-methyl-1H-benzo[d]imidazol-5-yl)indolizine-3-carbonyl)-2,6-difluorophenyl)but-2-enamide] | A (A binding rate of 80% or more is rated “A”) |
| 23 | 72 | CCc1cc2c(nc(C)n2C)c(Cl)c1-c1cccn2c(C(=O)c3cc(F)c(NC(=O)/C=C/CN[C@H]4CC[C@H](OC)CC4)c(F)c3)ccc12 (single isomer, unassigned) [Example 22-1, (E)-N-(4-(8-(4-chloro-6-ethyl-1,2-dimethyl-1H-benzo[d]imidazol-5-yl)indolizine-3-carbonyl)-2,6-difluorophenyl)-4-(((1r,4r)-4-methoxycyclohexyl)amino)but-2-enamide] | A (A binding rate of 80% or more is rated “A”) |
| 110 | 410 | CCc1cc2c(nc(C)n2C)c(Cl)c1-c1cccn2c(C(=O)c3cc(F)c(NC(=O)/C=C/CN[C@H]4CC[C@H](OC)CC4)c(F)c3)ccc12 (single isomer, unassigned) [Example 22-2, (E)-N-(4-(8-(4-chloro-6-ethyl-1,2-dimethyl-1H-benzo[d]imidazol-5-yl)indolizine-3-carbonyl)-2,6-difluorophenyl)-4-(((1r,4r)-4-methoxycyclohexyl)amino)but-2-enamide] | A (A binding rate of 80% or more is rated “A”) |
